pEC50, pKi: −log10 of the molar value.
Key:
human 5-HT2C receptor = molecular target: T1, human 5-HT2C receptor (Homo sapiens, UniProt P28335); test: 5-HT2C receptor-stimulated calcium mobilization (FLIPR) in CHO cells; format: cell-based; conditions: for Emax: CHO, read-out: 5-HT2C Function Emax (%); for Emax / 5-HT2C Function Emax (%): percentage of the response observed with a maximally effective concentration of 5-HT; for pEC50: calcium mobilization, CHO cells stably expressing human 5-HT2C, read-out: 5-HT2C Function EC50;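 as to all read-outs here: Fluo-3-AM fluorescence read on FLIPR every 1 s, agonist added after 10 baseline reads, response taken as peak minus lowest raw fluorescence count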
T1 sequence (P28335 33-458): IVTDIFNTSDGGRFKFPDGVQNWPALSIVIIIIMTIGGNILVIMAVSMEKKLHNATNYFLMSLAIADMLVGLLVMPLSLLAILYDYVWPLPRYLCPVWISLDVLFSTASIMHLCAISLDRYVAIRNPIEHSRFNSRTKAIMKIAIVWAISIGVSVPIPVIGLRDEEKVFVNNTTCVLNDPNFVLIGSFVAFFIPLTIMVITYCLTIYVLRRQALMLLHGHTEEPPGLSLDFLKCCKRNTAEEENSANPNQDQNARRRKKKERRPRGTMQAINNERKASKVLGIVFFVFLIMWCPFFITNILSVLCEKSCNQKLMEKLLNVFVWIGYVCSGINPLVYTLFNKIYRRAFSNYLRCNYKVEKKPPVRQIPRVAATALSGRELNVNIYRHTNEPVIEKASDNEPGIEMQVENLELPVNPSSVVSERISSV

[1] = molecular target: T2, human 5-hydroxytryptamine-2C (h5-HT2C) receptor (Homo sapiens, UniProt P28335); test: [125I]DOI binding to membranes of CHO cells expressing the human 5-HT2C receptor; conditions: [125I]DOI radioligand, CHO cell membranes, room temperature 60 min; read-out: 5-HT2C Affinity Ki
T2 construct: expressed in transfected cells; host or cells: CHO (Chinese Hamster Ovary) cells; membranes
T2 sequence (P28335 33-458): T1 sequence (P28335 33-458)

Emax (human 5-HT2C receptor) | pEC50 (human 5-HT2C receptor) | pKi [1] | 5-HT2C Function Emax (%) (human 5-HT2C receptor) | Compound
80% | 8.70 | 8.74 |  | CCNCC1Cc2cccc(-c3c(Cl)cccc3Cl)c2O1 (racemic) [Example 390, (±)-N-{[7-(2,6-dichlorophenyl)-2,3-dihydro-1-benzofuran-2-yl]methyl}ethanamine]
80% | 6.57 | 7.42 |  | COc1cccc(-c2cc(C(F)(F)F)cc3c2OC(CN)C3)c1OC (racemic) [Example 331, (±)-{[7-(2,3-dimethoxyphenyl)-5-(trifluoromethyl)-2,3-dihydro-1-benzofuran-2-yl]methyl}amine]
100% | 7.15 | 7.89 |  | NCC1Cc2cccc(-c3cccc(F)c3)c2O1 (racemic) [Example 64, (±)-1-[7-(3-fluorophenyl)-2,3-dihydro-1-benzofuran-2-yl]methanamine]
100% | 7.72 | 9.22 |  | COc1cc2c(c(-c3c(C)cccc3C)c1)OC(CN)C2 (racemic) [Example 374, (±)-{[7-(2,6-dimethylphenyl)-5-methoxy-2,3-dihydro-1-benzofuran-2-yl]methyl}amine]
92% | 7.80 | 8.55 |  | CNCC1Cc2cccc(-c3cc(Cl)ccc3Cl)c2O1 (racemic) [Example 429, (±)-[(N-methyl-1-[7-(2,5-dichlorophenyl)-2,3-dihydro-1-benzofuran-2-yl]methanamine]
 | 7.77 | 9.00 | 90% | COc1ccc(-c2cccc3c2OC(CN)C3)cc1 (single isomer, unassigned; (+)) [Example 80, (+)-1-[7-(4-methoxyphenyl)-2,3-dihydro-1-benzofuran-2-yl]methanamine]
90% | 8.22 | 8.60 |  | NCC1Cc2cccc(-c3c(F)cccc3F)c2O1 (racemic) [Example 139, (±)-1-[7-(2,6-difluorophenyl)-2,3-dihydro-1-benzofuran-2-yl]methanamine]
90% | 7.36 | 7.85 |  | Cc1cccc(C)c1-c1cc(C(F)(F)F)cc2c1OC(CN)C2 (racemic) [Example 338, (±)-{[7-(2,6-dimethylphenyl)-5-(trifluoromethyl)-2,3-dihydro-1-benzofuran-2-yl]methyl}amine]
90% | 7.24 | 8.64 |  | NCC1Cc2cc(F)cc(-c3ccncc3)c2O1 (racemic) [Example 209, (±)-[(5-fluoro-7-pyridin-4-yl-2,3-dihydro-1-benzofuran-2-yl)methyl]amine]
85% | 8.05 | 9.30 |  | NCC1Cc2cccc(-c3ccccc3C(F)(F)F)c2O1 (single isomer, unassigned; (-)) [Example 54, (−)-1-{7-[2-(trifluoromethyl)phenyl]-2,3-dihydro-1-benzofuran-2-yl}methanamine]
 | 8.22 | 9.34 | 90% | CNCC1Cc2cccc(-c3ccccc3C)c2O1 (single isomer, unassigned; (+)) [Example 408, (+)-N-methyl-1-[7-(2-methylphenyl)-2,3-dihydro-1-benzofuran-2-yl]methanamine]
100% | 8.52 | 10.22 |  | CNCC1Cc2cc(C)cc(-c3cc(Cl)ccc3Cl)c2O1 (single isomer, unassigned; (+)) [Example 487, (+)-{[7-(2,5-dichlorophenyl)-5-methyl-2,3-dihydro-1-benzofuran-2-yl]methyl}methylamine]
 | 7.10 | 7.74 | 70% | NCC1Cc2cccc(-c3cc(Cl)ccc3Cl)c2O1 (single isomer, unassigned; (-)) [Example 165, (−)-{[7-(2,5-dichlorophenyl)-2,3-dihydro-1-benzofuran-2-yl]methyl}amine]
100% | 9.10 | 9.57 |  | CNCC1Cc2cc(F)cc(-c3cc(Cl)ccc3Cl)c2O1 (single isomer, unassigned; (+)) [Example 450, (+)-{[5-fluoro-7-(2,5-dichlorophenyl)-2,3-dihydro-1-benzofuran-2-yl]methyl}methylamine]
70% | 6.46 | 7.44 |  | COc1cc2c(c(-c3cccc(Cl)c3Cl)c1)OC(CN)C2 (racemic) [Example 362, (±)-{[7-(2,3-dichlorophenyl)-5-methoxy-2,3-dihydro-1-benzofuran-2-yl]methyl}amine]
80% | 7.24 | 8.30 |  | CNCC1Cc2cc(C)cc(-c3ccc(OC)cc3)c2O1 (racemic) [Example 483, (±)-{[7-(4-methoxyphenyl)-5-methyl-2,3-dihydro-1-benzofuran-2-yl]methyl}methylamine]

Emax (human 5-HT2C receptor) | pEC50 (human 5-HT2C receptor) | pKi [1] | 5-HT2C Function Emax (%) (human 5-HT2C receptor) | Compound
90% | 7.38 | 7.74 |  | Cc1ccccc1-c1cc(C(F)(F)F)cc2c1OC(CN)C2 (racemic) [Example 314, (±)-{[5-(trifluoromethyl)-7-(2-methylphenyl)-2,3-dihydro-1-benzofuran-2-yl]methyl}amine]
100% | 8.70 | 9.46 |  | CNCC1Cc2cc(OC)cc(-c3c(C)cccc3C)c2O1 (single isomer, unassigned; (-)) [Example 560, (−)-{[7-(2,6-dimethylphenyl)-5-methoxy-2,3-dihydro-1-benzofuran-2-yl]methyl}methylamine]
90% | 6.47 | 8.89 |  | NCC1Cc2cc(F)cc(-c3ccoc3)c2O1 (racemic) [Example 204, (±)-{[5-fluoro-7-(3-furyl)-2,3-dihydro-1-benzofuran-2-yl]methyl}amine]
80% | 6.43 | 7.92 |  | NCC1Cc2cc(F)cc(-c3ccc(Cl)cc3)c2O1 (racemic) [Example 200, (±)-{[5-fluoro-7-(4-chlorophenyl)-2,3-dihydro-1-benzofuran-2-yl]methyl}amine]
100% | 7.62 | 7.89 |  | COc1ccc(OC)c(-c2cccc3c2OC(CN)C3)c1 (racemic) [Example 162, (±)-{[7-(2,5-dimethoxyphenyl)-2,3-dihydro-1-benzofuran-2-yl]methyl}amine]
 | 7.24 | 8.59 | 80% | CNCC1Cc2cccc(-c3ccccc3Cl)c2O1 (single isomer, unassigned; (-)) [Example 411, (−)-N-methyl-1-[7-(2-chlorophenyl)-2,3-dihydro-1-benzofuran-2-yl]methanamine]
100% | 6.25 | 7.59 |  | Cc1ccccc1-c1cccc2c1CC(CN)O2 (racemic) [Example 4, (±)-1-[4-(2-methylphenyl)-2,3-dihydro-1-benzofuran-2-yl]methanamine]
60% | 5.54 | 6.56 |  | NCC1Cc2cc(-c3ccccc3)cc(-c3ccccc3)c2O1 (racemic) [Example 344, (±)-[(5,7-diphenyl-2,3-dihydro-1-benzofuran-2-yl)methyl]amine]
100% | 7.38 | 8.96 |  | Cc1cc(Cl)ccc1-c1cccc2c1OC(CN)C2 (single isomer, unassigned; (+)) [Example 158, (+)-{[7-(4-chloro-2-methylphenyl)-2,3-dihydro-1-benzofuran-2-yl]methyl}amine]
90% | 8.22 | 8.33 |  | COc1cccc(-c2cccc3c2OC(CN)C3)c1OC (single isomer, unassigned; (-)) [Example 156]
100% | 8.05 | 9.29 |  | CNCC1Cc2cccc(-c3ccccc3C)c2O1 (racemic) [Example 406, (±)-[(N-methyl-1-[7-(2-methylphenyl)-2,3-dihydro-1-benzofuran-2-yl]methanamine]
70% | 7.55 | 8.21 |  | CNCC1Cc2cccc(-c3cccc(OC)c3OC)c2O1 (racemic) [Example 423, (±)-[(N-methyl-1-[7-(2,3-dimethoxyphenyl)-2,3-dihydro-1-benzofuran-2-yl]methanamine]
70% | 7.37 | 9.29 |  | CNCC1Cc2cc(C)cc(-c3cccc(OC)c3OC)c2O1 (racemic) [Example 484, (±)-{[7-(2,3-dimethoxyphenyl)-5-methyl-2,3-dihydro-1-benzofuran-2-yl]methyl}methylamine]
90% | 7.14 | 7.48 |  | COc1cc2c(c(-c3cccc(F)c3F)c1)OC(CN)C2 (racemic) [Example 361, (±)-{[7-(2,3-difluorophenyl)-5-methoxy-2,3-dihydro-1-benzofuran-2-yl]methyl}amine]
90% | 6.68 | 8.05 |  | Cc1ccccc1-c1cccc2c1CC(CN)O2 (single isomer, unassigned; (+)) [Example 5, (+)-1-[4-(2-methylphenyl)-2,3-dihydro-1-benzofuran-2-yl]methanamine]
90% | 6.84 | 8.30 |  | COc1cccc(-c2cccc3c2OC(CN)C3)c1 (racemic) [Example 68, (±)-1-[7-(3-methoxyphenyl)-2,3-dihydro-1-benzofuran-2-yl]methanamine]
